Measured values: patent US20230270692A1, “COMPOUNDS FOR CHRONIC DISORDERS” (Pillai Universal LLC, priority 2020, published 2023)
≈ marks a conversion by molar mass, not a printed value.

Assays:
[1] = tested on: cytotoxic cells, macrophages, NK cell and DC; experiment: Immune response
Source text: Compound I has the ability to activate CD4+ helper […] and generates an immune response in the body to protect against viral infections, Specifically, Compound I increases the number and activity of cytotoxic cells and promotes the activation of macrophages NK cell and DC which facilitate APC to CD4+ and CD8+ through capture, internalization, processing and presentation of antigens via MHC class I and II molecules.

[2] = Acute oral toxicity (OECD 423); assay type: in vivo
Description: Experimental Design: The assay of acute toxicity was performed according to the Organization for Economic Cooperation and Development (OECD) guideline 423 (OECD, 2001a). A total of 60 mice weighing between 27 and 37 g were randomly divided into six experimental groups of 10 mice each (5 males and 5 females per group). After fasting overnight Compound I was administered to each treatment group at single doses of 200, 500 1000, 2000, mg/kg, respectively, by oral gavage. The control groups were treated with the same volume of distilled water. After dosing, all animals were observed individually for mortality and changes in general behavior during the first 30 min, then at 2, 4, 6, 10 and 24 h following treatment. Symptoms of toxicity such as hypo-activity, piloerection, breathing difficulty, tremors, and convulsion were evaluated after administration of the various doses. The LD 50 value was determined according to the method described by the OECD Guidelines 423 (OECD, 2001a). During the remaining experimental period, the animal observation was performed at least once per day for the post-dosing period of 14 days. Body weights were measured at the initiation of treatment, and on days 4, 7, 11 and 14 after administration. On the 14th day, the mice were sacrificed under anesthesia, and vital organs (heart, kidneys, lung, spleen and liver) were removed for macroscopic examination.

[3] = tested on: Pancreatic adenocarcinoma cells (PANC); experiment: MTT cell viability of pancreatic cancer cells; assay type: cell-based, Human
Description: The synthesized compounds of Formula 1-4 were evaluated for cell proliferation, apoptosis, cell cycle arrest, the generation of reactive oxygen species and calcium were measured using MTT assay and flow cytometry, respectively. The expression of apoptosis- and proliferation-related proteins was determined by western blotting. The effect of molecules on apoptosis-related mRNA expression in cancer cells was detected by RT-PCR.
Changes in cell morphology were detected by the presence of cell membrane blebbing, chromatin condensation, and formation of apoptotic bodies (FIG. 10A).

[4] = tested on: SARS-CoV-2; experiment: Inactivation of SARS-CoV-2 upon direct exposure; conditions: Severe acute respiratory syndrome coronavirus 2, read-out: 50% reduction (IC50), inactivation of SARS-CoV-2
[5] = Pharmacokinetics and tissue distribution in nude mouse; assay type: in vivo
Description: The pharmacokinetics and toxicity of Compound I was studied in vivo in a nude mouse model.
Tissue-to-plasma ratios were taken of Compound I in animals at 1, 2, 4, 24 h after administration. At 60 min, the highest levels of Compound I were found in the lungs, brain, stomach, liver, mammary gland, and small intestine, all of which are highly perfused organs followed by spleen and heart. Up to 72 h, Compound I was detected in most organs, but not in the femur and kidney. The ratios in most organs continued to increase up to 4 h. […] There was no change in body weight monitored for a 7-day period after drug administrations.
As explained above, a pharmacokinetic study investigated the concentrations of Compound I at different time intervals after either oral administration or intravenous injection. […] In the gastrointestinal tract, a significant amount of Compound I accumulated in the stomach, implying that Compound I may be absorbed through stomach tissue and distributed throughout the body. […] Collectively, our current findings will provide a more complete understanding of the biological actions of Compound I in vivo.

[6] = tested on: cancer stem cells; experiment: Cancer stem cell marker expression; assay type: cell-based
Source text: CSCs have significant impact on the tumor progression, drug resistance, recurrence and metastasis in different types of malignancies. Conventional cancer chemotherapy often fails as most anti-cancer drugs are not effective against drug-resistant CSCs. These surviving CSCs lead to relapse and metastasis. Most studies report that conventional therapeutic agents have limited access to the CSCs due to their hypoxic microenvironment and distant location from the vasculature that retards the efficacy of anti-CSC drugs (FIG. 14). However, the disclosed compounds may overcome this limitation and may penetrate into a deeper location and destroy CSCs. Accordingly, in embodiments, the present invention provides a method of inhibiting cancer stem cell survival and/or self-renewal comprising administering to a cancer stem cell an effective amount of a compound disclosed herein, e.g., Compound I (FIG. 13).
The compounds of the disclosure inhibited the expression of the genes in the follow cancers (FIG. 18): • Breast: CD44+CD24−/low Lineage−, ALDH-1high • Liver: CD133+, CD49f+, CD90+ • Colon: CD133+, CD44+, CD166+, EpCAM+, CD24+ • Pancreatic: CD133+, CD44+, EpCAM+, CD24+ • Leukemia: CD34+CD38− • Lungs: CD133+, ABCG2^High • Leukemia: CD34+, CD38−, HLA−, DR−, CD71−, CD90−, CD117−, CD123+
Reduction of stem cell surface marker expressions are seen within 1 hour and up to a maximum of […]. […]

[7] = tested on: PANC-1 xenograft; experiment: PANC-1 xenograft mouse model; assay type: in vivo
Description: Study Design: A PANC-1 xenograft mouse model was carried out according to the experimental design described in FIG. 21A. Tumor volume was monitored over a 30-day period upon administration of PBS alone (vehicle control), 25 mg/kg gemcitabine, and 10 mg/kg Compound I.

[8] = treatment group compared to control group

Q: With `COc1cc(/C=C/C(=O)/C=C/C=C/c2cc(OC)c(O)c(OC)c2)cc(OC)c1` [Compound I] as the molecule, how does the “number and activity of cytotoxic cells” value [1] read?
A: increases

Q: What about the treatment related death ([2]; acute, 14-day observation, both sexes) of the same molecule?
A: no treatment related death was observed

Q: And the LD50 at 14 days ([2]; both sexes, mouse, in vivo, oral, read-out: median lethal dose (LD50))?
A: > 2000 mg/kg

Q: And the GHS classification ([2]; both, mouse, in vivo, 14 days)?
A: Category 5

Q: And the cell viability ([3]; 24 and 48 h, 1-100 μg/mL)?
A: decreased significantly in time- and dose-dependent manners

Q: What about the cytotoxicity at 10 µg/mL ([3]; Homo sapiens, Pancreatic cancer cell, read-out: decrease in viable cells) of the same molecule?
A: ~65.5%

Q: What about the IC50 ([3]; Homo sapiens, Pancreatic cancer cell, PANC cells, after 24 hours of exposure) of the same molecule?
A: 5.74 ± 0.02 µg/mL (≈ 14.5 µM)

Q: And the IC50 [4]?
A: 1 µM

Q: What about the Toxicity ([5]; 10 mg/kg IV) of the same molecule?
A: No toxicity was observed

Q: And the “tissue-to plasma ratio in the hippocampus and brain” value ([5]; 1, 2, and 24 h after dosing)?
A: increased significantly and continuously

Q: And the body weight ([5]; 7-day period after administration)?
A: no change

Q: And the tissue distribution ([5]; intravenous administration)?
A: widely distributed in several tissues

Q: And the “absorbed or distributed to the vital organs” value ([5]; mouse, in vivo)?
A: approximately 98%

Q: What about the “excreted in either urine or feces” value ([5]; mouse, in vivo) of the same molecule?
A: less than 2%

Q: And the “time Compound I was detected in most organs” value ([5]; not in the femur and kidney)?
A: Up to 72 h

Q: What about the “signs of discomfort, cardiovascular or respiratory disorders” value ([5]; throughout the study period) of the same molecule?
A: No signs of discomfort or any cardiovascular or respiratory disorders were observed

Q: What about the “increase in the area under the curve (AUC)” value [5, 8] of the same molecule?
A: 28 fold

Q: And the “increase in the maximum plasma concentration (Cmax)” value [5, 8]?
A: 29 fold

Q: What about the “cancer stem cell markers / gene expression” value [6] of the same molecule?
A: inhibition

Q: And the imaging studies ([7]; 10 mg/kg)?
A: no detectable tumor

Q: And the tumor volume ([7]; day 5 to day 30, 25 mg/kg gemcitabine, 10 mg/kg Compound I)?
A: decrease

Q: And the survival ([7]; mouse, in vivo)?
A: improved survival
